Some targets named below: NysDI (Streptomyces noursei, UniProt Q9L4W6); AmphDI (Streptomyces nodosus, UniProt Q93NW9); NysDI-T2 (Streptomyces noursei, UniProt Q9L4W6).
Common to all, as to experiment: reverse glycosyl transfer
Holding throughout (format): biochemical
Common to all, as to details: 1 mM GDP, 1 mM MgCl2, pH 8.0, 30 °C; reverse reaction

Take `C[C@@H]1[C@H](O)[C@@H](C)/C=C/C=C/C=C/C=C/C=C/C=C/C=C/[C@H](O[C@@H]2O[C@H](C)[C@@H](O)[C@H](N)[C@@H]2O)C[C@@H]2O[C@](O)(C[C@@H](O)C[C@@H](O)[C@H](O)CC[C@@H](O)C[C@@H](O)CC(=O)O[C@H]1C)C[C@H](O)[C@H]2C(=O)O` [compound 1, amphotericin B]: the “reverse glycosyl transfer (deglycosylation), RP-HPLC” value at NysDI was “reaction reversibility assessed in the presence of AmphDI, NysDI and NysDI-T2”; at AmphDI, “reaction reversibility assessed in the presence of AmphDI, NysDI and NysDI-T2”; on NysDI-T2, “reaction reversibility assessed in the presence of AmphDI, NysDI and NysDI-T2”.

The record behind these values is article PMC2947747 (Chembiochem : a European journal of chemical biology, 2008).
